# Results from patent US11213499B1, “Use of 3,3′-diselenodipropionic acid (DSePA) as an anticancer agent” (Secretary, Department of Atomic Energy, priority 2020, dated 2022).
# Test system: Vero (Monkey kidney transformed epithelial cell line (normal))
# Assay: SRB/MTT assay, normal Vero cells
# Type: cell-based
# Experimental: The anticancer effect of DSePA was evaluated using a panel of twenty-five human cancer cell lines of different tissue origins. Cells were treated with the increasing concentrations (0.1-100 μM) of DSePA for 48 h and viability was monitored by (Sulforhodamine B) SRB assay or MTT assay.
# Cell culture and DSePA synthesis—DSePA was synthesized and characterized as described in our previous reports. Cell lines were cultured in growth medium (DMEM/RPMI) supplemented with 10% FBS, 100 U/ml penicillin and 100 μg/ml streptomycin at 37° C. in a humidified 5% CO2 environment. The stock solution of DSePA was prepared fresh in cell culture medium and diluted with the same to achieve the desired concentrations.
# SRB/MTT Assay—To evaluate the anti-proliferative effect of DSePA, Cells (˜5×10^3) suspended in 100 μl of complete culture medium were seeded in each well of 96 well plates. The cells were allowed to attach and grow for 24 h, treated with desired concentrations of DSePA dissolved in culture medium for 48 h and then processed for SRB/MTT assay as described in literature. The percentage (%) cytotoxicity was calculated from the decrease in absorbance as compared to that of control group.
structure (smiles),measurement,setting,value
"O=C(O)CC[Se][Se]CCC(=O)O [DSePA, 3,3′-diselenodipropionic acid]",GI50,"Primates, Vero normal cells, 48 hours treatment, SRB/MTT assay, read-out: GI50 (Concentration of drug causing 50% inhibition of cell growth)",> 100 µM
same,toxicity in normal cell types,"Vero, 0.1-100 μM, 48 h",did not show toxicity
